These results are taken from patent publication US3941763A, “PGlu-D-Met-Trp-Ser-Tyr-D-Ala-Leu-Arg-Pro-Gly-NH2 and intermediates” (American Home Products Corporation, priority 1975, dated 1976).

Assay [1] has as its system rat pituitary tissue cultures. Description: Inhibition of LRH-induced release of LH in vitro in rat pituitary tissue cultures. Format: cell-based. How it is done:
LH concentration is determined by double-antibody radioimmunoassay.

Assay [2] has as its system LRH-induced release of LH. Nature of the assay: Inhibition of LRH-induced release of LH in vivo in rats. Further details: species or system Male Sprague-Dawley rats. Here is the method: Male Sprague-Dawley rats are divided into two groups of at least 5 animals in each group. One group receives the test compound. The other is the control group (no test compound). At zero time, the test group receives a 100-ng dose (subcutaneous) of D--Met^2 --D--Ala^6 --LRH in 0.2 ml. of physiological saline, while the control group receives a 0.2 ml. dose of physiological saline alone. At 20 minutes, blood samples are removed by cardiac puncture, and LH concentration is determined by double-antibody radioimmunoassay. At 45 minutes, the zero-time dose is repeated for each group of animals. At 50 minutes, the animals in each group are given a 200-ng dose (subcutaneous) of LRH in 0.2 ml. of physiological saline. A second blood sample is removed by cardiac puncture at 70 minutes and LH concentration is determined.

Non-standard residues stand in square brackets, D forms with d. Residues, ends and D or L forms follow the SMILES beside them. pGlu = O=C1CC[C@@H](C(=O)O)N1

Take `CSCC[C@@H](NC(=O)[C@@H]1CCC(=O)N1)C(=O)N[C@@H](Cc1c[nH]c2ccccc12)C(=O)N[C@@H](CO)C(=O)N[C@@H](Cc1ccc(O)cc1)C(=O)N[C@H](C)C(=O)N[C@@H](CC(C)C)C(=O)N[C@@H](CCCNC(=N)N)C(=O)N1CCC[C@H]1C(=O)NCC(=O)O` [D--Met^2 --D--Ala^6 --LRH, L-Pyroglutamyl-D-methionyl-L-tryptophyl-L-seryl-L-tyrosyl-D-alanyl-L-leucyl-L-arginyl-L-prolyl-glycine] ([pGlu][dM]WSY[dA]LRPG-OH): the LH concentration stood at 308 ± 2 ng/mL in assay [1] (LRH 5 ng/ml + D-Met2-D-Ala6-LRH 10 ng/ml, double-antibody radioimmunoassay); 143 ± 2 ng/mL in assay [1] (LRH 5 ng/ml + D-Met2-D-Ala6-LRH 100 ng/ml, double-antibody radioimmunoassay); 92 ± 2 ng/mL in assay [1] (LRH 5 ng/ml + D-Met2-D-Ala6-LRH 1000 ng/ml, double-antibody radioimmunoassay). For the same compound, the “LH Plasma Conc.” value in assay [2] (time 20 minutes, before LRH administration, 100 ng s.c. test compound at zero time) was 10 ± 4 ng/mL; in assay [2] (time 70 minutes, after LRH administration (200 ng s.c. at 50 min), 100 ng s.c. test compound at 0 and 45 min) it was 25 ± 5 ng/mL.
As for `CC(C)C[C@H](NC(=O)CNC(=O)[C@H](Cc1ccc(O)cc1)NC(=O)[C@H](CO)NC(=O)[C@H](Cc1c[nH]c2ccccc12)NC(=O)[C@H](Cc1c[nH]cn1)NC(=O)[C@@H]1CCC(=O)N1)C(=O)N[C@@H](CCCNC(=N)N)C(=O)N1CCC[C@H]1C(=O)NCC(N)=O` [LRH, L--pGlu--His--Trp--Ser--Tyr--Gly--Leu--Arg--Pro--Gly--NH2, reference compound], the LH concentration in assay [1] (LRH 5 ng/ml alone, no test compound) turned out to be 282 ± 11 ng/mL.
